{"source": "patent US12479895B2", "about": "“C-terminal CDNF and MANF fragments, pharmaceutical compositions comprising same and uses thereof” (MyNeuroCure Oy, priority 2018, dated 2025)", "key": {"[1]": {"tested_on": "ER stressed SCG neurons", "assay": "Survival of tunicamycin-treated (ER stressed) SCG sympathetic neurons after microinjection", "assay_type": "cell-based, mice", "conditions": "for survived neurons as % compared to neurons grown in the presence of NGF: Table 1A (FIG. 14), microinjected into cytoplasm, tunicamycin 2 μM, CDNF (400); for Fold change of survived neurons compared to neurons injected with PBS: data of Table 1 divided by values of PBS", "how_it_was_run": "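Newborn mouse SCG neurons grown 5-6 days with 30 ng/ml NGF, then microinjected with CDNF (FL or C-terminal) plasmids (10 ng/ul, EGFP reporter) or proteins (200 ng/ul, Dextran Texas Red). Tunicamycin (2 μM) added next day. Fluorescent survivors counted blindly after 3 days as % of initial; compared with vector or PBS (ANOVA/Dunnett).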"}, "[2]": {"tested_on": "dopamine neurons", "assay": "Survival of TH-positive dopamine neurons in dissociated midbrain floor cultures", "assay_type": "cell-based, mouse", "conditions": "for survived neurons as % compared to neurons grown in the presence of GDNF: Table 3A (FIG. 15), 5 days; for Fold change of survived neurons compared to neurons grown without growth factors: data of Table 3 divided by values of no factor", "how_it_was_run": "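Dissociated E13.5 NMRI mouse midbrain floor neurons grown five days in DMEM/F12 with N2, with polypeptides at a range of concentrations, GDNF (100 ng/ml), or nothing. TH-immunopositive neurons were counted by imaging. Values are a percentage of GDNF-maintained TH-positive neurons, as mean ± SEM from at least three independent cultures.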"}}}
{"sequence": "KYEKTLDLASVDLRKMRVAELKQILHSWGEECRACAEKTDYVNLIQELAP (listed as Homo sapiens) [pep7]", "values": [{"measurement": "survived neurons as % compared to neurons grown in the presence of NGF", "setting": "[1]; AVG of exp1-2", "result": 80.76, "unit": "% NGF"}, {"measurement": "survived neurons as % compared to neurons grown in the presence of NGF", "setting": "[1]; exp1, counted after 3 days", "result": 76.67, "unit": "% NGF"}, {"measurement": "survived neurons as % compared to neurons grown in the presence of NGF", "setting": "[1]; exp2, counted after 3 days", "result": 84.85, "unit": "% NGF"}, {"measurement": "Fold change of survived neurons compared to neurons injected with PBS", "setting": "[1]; Table 2, AVG", "result": "2.19 Fold to PBS"}, {"measurement": "Fold change of survived neurons compared to neurons injected with PBS", "setting": "[1]; Table 2, exp1", "result": "2.24 Fold to PBS"}, {"measurement": "Fold change of survived neurons compared to neurons injected with PBS", "setting": "[1]; Table 2, exp2", "result": "2.14 Fold to PBS"}, {"measurement": "survived neurons as % compared to neurons grown in the presence of GDNF", "setting": "[2]; AVG, 1 ng/ml", "result": 70.12, "unit": "% GDNF"}, {"measurement": "survived neurons as % compared to neurons grown in the presence of GDNF", "setting": "[2]; AVG, 10 ng/ml", "result": 76.13, "unit": "% GDNF"}, {"measurement": "survived neurons as % compared to neurons grown in the presence of GDNF", "setting": "[2]; AVG, 100 ng/ml", "result": 72.36, "unit": "% GDNF"}, {"measurement": "survived neurons as % compared to neurons grown in the presence of GDNF", "setting": "[2]; AVG, 1000 ng/ml", "result": 79.07, "unit": "% GDNF"}, {"measurement": "survived neurons as % compared to neurons grown in the presence of GDNF", "setting": "[2]; exp1, 1 ng/ml", "result": 67.76, "unit": "% GDNF"}, {"measurement": "survived neurons as % compared to neurons grown in the presence of GDNF", "setting": "[2]; exp1, 10 ng/ml", "result": 63.47, "unit": "% GDNF"}, {"measurement": "survived neurons as % compared to neurons grown in the presence of GDNF", "setting": "[2]; exp1, 100 ng/ml", "result": 62.89, "unit": "% GDNF"}, {"measurement": "survived neurons as % compared to neurons grown in the presence of GDNF", "setting": "[2]; exp1, 1000 ng/ml", "result": 64.02, "unit": "% GDNF"}, {"measurement": "survived neurons as % compared to neurons grown in the presence of GDNF", "setting": "[2]; exp2, 1 ng/ml", "result": 73.36, "unit": "% GDNF"}, {"measurement": "survived neurons as % compared to neurons grown in the presence of GDNF", "setting": "[2]; exp2, 10 ng/ml", "result": 83.50, "unit": "% GDNF"}, {"measurement": "survived neurons as % compared to neurons grown in the presence of GDNF", "setting": "[2]; exp2, 100 ng/ml", "result": 79.82, "unit": "% GDNF"}, {"measurement": "survived neurons as % compared to neurons grown in the presence of GDNF", "setting": "[2]; exp2, 1000 ng/ml", "result": 86.37, "unit": "% GDNF"}, {"measurement": "survived neurons as % compared to neurons grown in the presence of GDNF", "setting": "[2]; exp3, 1 ng/ml", "result": 69.24, "unit": "% GDNF"}, {"measurement": "survived neurons as % compared to neurons grown in the presence of GDNF", "setting": "[2]; exp3, 10 ng/ml", "result": 81.41, "unit": "% GDNF"}, {"measurement": "survived neurons as % compared to neurons grown in the presence of GDNF", "setting": "[2]; exp3, 100 ng/ml", "result": 74.38, "unit": "% GDNF"}, {"measurement": "survived neurons as % compared to neurons grown in the presence of GDNF", "setting": "[2]; exp3, 1000 ng/ml", "result": 86.80, "unit": "% GDNF"}, {"measurement": "Fold change of survived neurons compared to neurons grown without growth factors", "setting": "[2]; Table 4, AVG, 1 ng/ml", "result": 1.14, "unit": "fold"}, {"measurement": "Fold change of survived neurons compared to neurons grown without growth factors", "setting": "[2]; Table 4, AVG, 10 ng/ml", "result": 1.23, "unit": "fold"}, {"measurement": "Fold change of survived neurons compared to neurons grown without growth factors", "setting": "[2]; Table 4, AVG, 100 ng/ml", "result": 1.17, "unit": "fold"}, {"measurement": "Fold change of survived neurons compared to neurons grown without growth factors", "setting": "[2]; Table 4, AVG, 1000 ng/ml", "result": 1.28, "unit": "fold"}, {"measurement": "Fold change of survived neurons compared to neurons grown without growth factors", "setting": "[2]; Table 4, exp1, 1 ng/ml", "result": 1.19, "unit": "fold"}, {"measurement": "Fold change of survived neurons compared to neurons grown without growth factors", "setting": "[2]; Table 4, exp1, 10 ng/ml", "result": 1.11, "unit": "fold"}, {"measurement": "Fold change of survived neurons compared to neurons grown without growth factors", "setting": "[2]; Table 4, exp1, 100 ng/ml", "result": 1.10, "unit": "fold"}, {"measurement": "Fold change of survived neurons compared to neurons grown without growth factors", "setting": "[2]; Table 4, exp1, 1000 ng/ml", "result": 1.12, "unit": "fold"}, {"measurement": "Fold change of survived neurons compared to neurons grown without growth factors", "setting": "[2]; Table 4, exp2, 1 ng/ml", "result": 1.16, "unit": "fold"}, {"measurement": "Fold change of survived neurons compared to neurons grown without growth factors", "setting": "[2]; Table 4, exp2, 10 ng/ml", "result": 1.32, "unit": "fold"}, {"measurement": "Fold change of survived neurons compared to neurons grown without growth factors", "setting": "[2]; Table 4, exp2, 100 ng/ml", "result": 1.27, "unit": "fold"}, {"measurement": "Fold change of survived neurons compared to neurons grown without growth factors", "setting": "[2]; Table 4, exp2, 1000 ng/ml", "result": 1.37, "unit": "fold"}, {"measurement": "Fold change of survived neurons compared to neurons grown without growth factors", "setting": "[2]; Table 4, exp3, 1 ng/ml", "result": 1.07, "unit": "fold"}, {"measurement": "Fold change of survived neurons compared to neurons grown without growth factors", "setting": "[2]; Table 4, exp3, 10 ng/ml", "result": 1.26, "unit": "fold"}, {"measurement": "Fold change of survived neurons compared to neurons grown without growth factors", "setting": "[2]; Table 4, exp3, 100 ng/ml", "result": 1.15, "unit": "fold"}, {"measurement": "Fold change of survived neurons compared to neurons grown without growth factors", "setting": "[2]; Table 4, exp3, 1000 ng/ml", "result": 1.34, "unit": "fold"}]}
